The record followed here is ChEMBL document CHEMBL4118289, “Developing hybrid molecule therapeutics for diverse enzyme inhibitory action: Active role of coumarin-based structural leads in drug discovery” (Bioorg Med Chem, 2018).

The test system of assay [1] is Rattus norvegicus. In words: Antiinflammatory activity in albino rat assessed as inhibition of carrageenan-induced paw edema at 10 umol/kg, sc pretreated for 1 hr followed by carrageenan challenge measured after 4 hrs by plethysmographic method relative to control. Format: functional. In general terms: In the carrageenan paw model, swelling and tenderness develop within hours.

The target of assay [2] is Prostaglandin G/H synthase 1 (Homo sapiens, UniProt P23219). In words: Inhibition of human COX1 using [14C]arachidonic acid as substrate preincubated for 5 mins followed by substrate addition measured after 2 mins by TLC.
The target in a further assay is T1, Tyrosinase (Agaricus bisporus, UniProt O42713).
T1 sequence (O42713 whole entry): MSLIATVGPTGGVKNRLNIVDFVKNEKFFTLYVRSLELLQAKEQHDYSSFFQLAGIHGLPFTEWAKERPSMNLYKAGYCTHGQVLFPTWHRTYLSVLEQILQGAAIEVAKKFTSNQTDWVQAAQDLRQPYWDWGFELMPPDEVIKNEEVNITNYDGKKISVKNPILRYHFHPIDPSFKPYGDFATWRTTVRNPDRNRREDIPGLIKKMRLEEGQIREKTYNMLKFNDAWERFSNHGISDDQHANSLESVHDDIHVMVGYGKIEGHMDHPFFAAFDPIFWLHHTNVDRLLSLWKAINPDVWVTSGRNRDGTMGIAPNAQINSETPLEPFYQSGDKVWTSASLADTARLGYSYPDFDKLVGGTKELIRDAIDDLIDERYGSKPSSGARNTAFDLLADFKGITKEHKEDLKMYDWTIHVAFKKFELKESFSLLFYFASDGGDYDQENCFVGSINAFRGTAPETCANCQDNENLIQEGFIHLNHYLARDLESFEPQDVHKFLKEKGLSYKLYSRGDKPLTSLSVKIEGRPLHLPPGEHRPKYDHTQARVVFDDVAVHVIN
Briefly: Inhibition of mushroom tyrosinase using L-DOPA as substrate preincubated for 10 mins followed by substrate addition measured after 20 mins.

A further assay has as its target Lipoxygenase (Glycine max, UniProt Q39829).
The test system of a further assay is Saccharomyces cerevisiae. In words: Potency index, ratio of acarbose IC50 to compound IC50 for Saccharomyces cerevisiae alpha-glucosidase.
A short description of assay [3]: Non-competitive inhibition of baker's yeast alpha-glucosidase using pNPG as substrate preincubated for 10 mins followed by substrate addition measured after 30 mins by Lineweaver-Burk plot analysis. Also on record: species or system Saccharomyces cerevisiae.
Assay [4] concerns the target Cholinesterase (Equus caballus) (UniProt P81908). Briefly: Potency index, ratio of galanthamine IC50 to compound IC50 for equine serum BChE.
For assay [5], the target named is Cholinesterase (Equus caballus, UniProt P81908). In words: Inhibition of equine serum BChE using butyrylthiocholine iodide as substrate preincubated for 15 mins followed by substrate addition by Ellman's method. (In general: Ellman's reagent forms a yellow product with free thiols.)
The next assay is filed under the species Homo sapiens. In words: Selectivity ratio of IC50 for human COX1 to IC50 for human COX2.
In assay [6] the target is Intestinal-type alkaline phosphatase (Bos taurus, UniProt P19111).
Description: Inhibition of calf intestinal alkaline phosphatase using pNPP as substrate preincubated for 10 mins followed by substrate addition measured after 30 mins
Assay [7] has as its system Rattus norvegicus. Briefly: Antiinflammatory activity in Wistar rat assessed as inhibition of formalin-induced paw oedema at 20 mg/kg, po equiv of indomethacin pretreated for 1 hr followed by formalin addition measured up to 6 hrs post dose by plethysmographic method relative to control. Format: functional.
Assay [8] has as its target Aldo-keto reductase family 1 member B1 (Bos taurus) (UniProt P16116). In words: Potency index, ratio of valproic acid IC50 to compound IC50 for bovine kidney ALR1.
Assay [9] concerns the target Aldo-keto reductase family 1 member B1 (Bos taurus, UniProt P16116). Briefly: Inhibition of calf lens ALR2 using D,L-glyceraldehyde as substrate preincubated for 5 mins followed by NADPH addition measured after 10 mins by UV spectrophotometric method.
Assay [10] addresses T2, Acetylcholinesterase (Homo sapiens, UniProt P22303). In words: Potency index, ratio of 7-MEOTA IC50 to compound IC50 for human erythrocyte AChE.
Assay [11] addresses Cholinesterase (Homo sapiens, UniProt P06276). In words: Inhibition of human plasmatic BuChE using butylthiocholine as substrate preincubated for 5 mins followed by substrate addition measured at 1 min time interval by Ellman's method.
For assay [12], the target named is T2, Acetylcholinesterase.
For assay [13], the target named is Lipoxygenase (Glycine max) (UniProt Q39829). Briefly: Potency index, ratio of NDGA IC50 to compound IC50 for soybean lipoxygenase.
In assay [14] the target is Aldo-keto reductase family 1 member B1 (Bos taurus) (UniProt P16116). In words: Potency index, ratio of sulindac IC50 to compound IC50 for calf lens ALR2.
A further assay is filed under the species Bos taurus. In words: Selectivity index, ratio of IC50 for bovine kidney ALR1 to IC50 for calf lens ALR2.

What is called inhibition in vivo is the share of the control response that was lost under treatment. As usually defined, the IC50 is the concentration that inhibits the measured activity by half. The Ki is a measure of affinity in units of concentration, obtained from inhibition or displacement. A low value points to a stronger hold on the target.

Chain of Prostaglandin G/H synthase 1 (P23219 whole entry): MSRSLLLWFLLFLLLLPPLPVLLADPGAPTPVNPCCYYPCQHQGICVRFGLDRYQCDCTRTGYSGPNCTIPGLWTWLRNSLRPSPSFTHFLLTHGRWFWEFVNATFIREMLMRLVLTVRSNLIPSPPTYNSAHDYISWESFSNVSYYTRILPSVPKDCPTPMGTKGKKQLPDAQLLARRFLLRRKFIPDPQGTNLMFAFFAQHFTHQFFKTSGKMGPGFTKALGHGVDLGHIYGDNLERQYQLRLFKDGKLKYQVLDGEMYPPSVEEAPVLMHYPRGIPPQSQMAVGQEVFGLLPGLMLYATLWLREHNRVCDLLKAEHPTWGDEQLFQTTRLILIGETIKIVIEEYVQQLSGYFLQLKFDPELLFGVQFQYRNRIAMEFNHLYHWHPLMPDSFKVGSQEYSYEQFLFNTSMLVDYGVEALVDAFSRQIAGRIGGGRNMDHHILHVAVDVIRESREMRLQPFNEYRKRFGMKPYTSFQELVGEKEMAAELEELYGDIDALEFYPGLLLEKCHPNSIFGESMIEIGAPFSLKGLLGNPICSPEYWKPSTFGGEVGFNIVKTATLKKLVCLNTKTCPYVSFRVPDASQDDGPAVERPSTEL
T2 sequence (P22303 whole entry): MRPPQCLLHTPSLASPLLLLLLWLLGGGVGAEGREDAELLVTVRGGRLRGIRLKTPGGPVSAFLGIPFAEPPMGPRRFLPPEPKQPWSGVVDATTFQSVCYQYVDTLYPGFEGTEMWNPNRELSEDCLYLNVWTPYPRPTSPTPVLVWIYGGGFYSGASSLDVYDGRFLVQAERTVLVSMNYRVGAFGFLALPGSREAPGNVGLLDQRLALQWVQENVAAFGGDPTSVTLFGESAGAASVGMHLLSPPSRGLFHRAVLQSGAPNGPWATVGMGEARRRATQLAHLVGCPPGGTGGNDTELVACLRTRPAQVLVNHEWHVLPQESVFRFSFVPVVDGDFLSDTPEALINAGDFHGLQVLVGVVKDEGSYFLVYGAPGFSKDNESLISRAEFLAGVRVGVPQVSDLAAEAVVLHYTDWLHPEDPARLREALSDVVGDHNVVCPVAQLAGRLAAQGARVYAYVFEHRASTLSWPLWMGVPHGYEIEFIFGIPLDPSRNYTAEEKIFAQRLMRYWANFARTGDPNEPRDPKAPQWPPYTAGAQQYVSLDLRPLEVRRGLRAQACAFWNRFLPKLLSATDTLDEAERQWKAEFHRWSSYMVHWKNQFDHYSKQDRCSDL
Chain of Cholinesterase (Equus caballus) (P81908 whole entry): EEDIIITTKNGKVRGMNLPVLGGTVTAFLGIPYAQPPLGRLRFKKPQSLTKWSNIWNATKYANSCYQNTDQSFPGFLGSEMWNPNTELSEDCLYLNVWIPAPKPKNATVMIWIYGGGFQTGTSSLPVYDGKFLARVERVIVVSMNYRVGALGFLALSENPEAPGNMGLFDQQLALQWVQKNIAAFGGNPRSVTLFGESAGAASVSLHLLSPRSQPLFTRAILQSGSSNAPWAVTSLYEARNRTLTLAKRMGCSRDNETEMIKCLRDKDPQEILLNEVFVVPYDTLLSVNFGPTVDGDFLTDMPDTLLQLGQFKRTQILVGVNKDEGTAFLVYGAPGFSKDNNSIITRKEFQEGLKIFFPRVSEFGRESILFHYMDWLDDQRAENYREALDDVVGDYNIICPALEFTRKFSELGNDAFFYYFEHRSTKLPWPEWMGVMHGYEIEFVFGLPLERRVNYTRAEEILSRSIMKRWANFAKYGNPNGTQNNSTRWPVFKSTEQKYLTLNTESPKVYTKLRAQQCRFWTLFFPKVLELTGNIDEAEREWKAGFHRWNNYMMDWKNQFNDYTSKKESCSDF
Chain of Cholinesterase (Equus caballus, UniProt P81908) (P81908 whole entry): as above
Chain of Intestinal-type alkaline phosphatase (P19111 whole entry): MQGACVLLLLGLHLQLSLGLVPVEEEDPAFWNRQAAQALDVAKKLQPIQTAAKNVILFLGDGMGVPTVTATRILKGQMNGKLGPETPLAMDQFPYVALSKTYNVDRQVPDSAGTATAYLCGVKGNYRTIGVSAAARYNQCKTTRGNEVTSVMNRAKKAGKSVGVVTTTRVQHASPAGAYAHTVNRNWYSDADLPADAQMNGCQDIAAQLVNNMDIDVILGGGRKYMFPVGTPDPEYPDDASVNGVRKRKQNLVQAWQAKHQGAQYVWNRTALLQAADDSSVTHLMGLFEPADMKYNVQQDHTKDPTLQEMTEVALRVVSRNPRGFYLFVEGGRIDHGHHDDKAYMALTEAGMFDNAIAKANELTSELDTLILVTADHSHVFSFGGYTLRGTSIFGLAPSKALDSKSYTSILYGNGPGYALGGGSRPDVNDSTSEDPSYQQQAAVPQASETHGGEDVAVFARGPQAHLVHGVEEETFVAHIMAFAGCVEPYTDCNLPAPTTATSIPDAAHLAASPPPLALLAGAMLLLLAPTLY
Chain of Cholinesterase (Homo sapiens, UniProt P06276) (P06276 whole entry): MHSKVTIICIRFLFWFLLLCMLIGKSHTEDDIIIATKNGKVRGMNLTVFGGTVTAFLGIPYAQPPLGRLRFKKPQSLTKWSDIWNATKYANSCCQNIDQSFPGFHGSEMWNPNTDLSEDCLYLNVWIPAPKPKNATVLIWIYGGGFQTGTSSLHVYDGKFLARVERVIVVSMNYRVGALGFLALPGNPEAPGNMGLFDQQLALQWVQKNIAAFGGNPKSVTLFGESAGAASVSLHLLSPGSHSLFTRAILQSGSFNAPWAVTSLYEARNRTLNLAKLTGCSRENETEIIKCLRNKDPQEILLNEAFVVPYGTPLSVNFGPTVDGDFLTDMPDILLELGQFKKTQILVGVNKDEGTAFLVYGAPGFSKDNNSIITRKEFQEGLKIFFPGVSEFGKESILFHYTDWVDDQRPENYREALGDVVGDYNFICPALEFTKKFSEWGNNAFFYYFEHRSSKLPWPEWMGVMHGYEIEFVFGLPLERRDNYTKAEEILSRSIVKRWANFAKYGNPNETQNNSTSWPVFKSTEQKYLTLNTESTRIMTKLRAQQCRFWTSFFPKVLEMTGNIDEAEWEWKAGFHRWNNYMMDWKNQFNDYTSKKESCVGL

With `C/C(=N\N=C1\CCC(=O)N1C)c1cc2ccccc2oc1=O`, the inhibition in vivo at 10 µmol/kg in the assay on Rattus norvegicus [1] was found to be 71.9%. The compound also gave an IC50 in assay [2] of 56 to 167 µM. As to `COc1cc(C2CC(c3cc4ccccc4oc3=O)=NN2c2nc(-c3ccc(Br)cc3)cs2)ccc1OCc1ccccc1` (configuration not stated), the IC50 at Tyrosinase is 0.00458 µM. At Lipoxygenase, `O=c1oc2ccccc2c(O)c1/C=C/n1cnc2c(NCc3ccccc3)ncnc21` yielded an IC50 of 20 µM. Take `O=C(Cn1c(Cc2ccc(Cl)c(Cl)c2)nc2ccccc2c1=O)NNC(=O)c1cc2ccccc2oc1=O`: the Ratio IC50 with Saccharomyces cerevisiae was in the range of 4 to 5.

`O=C(N/N=C/c1cc(Cl)cc(Cl)c1O)c1nc(-c2cc3ccccc3oc2=O)cs1` had a Ki in assay [3] of 6.86 µM. Consider `O=C(Nc1ccc(F)cc1)Nc1nc(-c2cc3cc([N+](=O)[O-])ccc3oc2=O)cs1`, for which, in [4], the Ratio IC50 came out at 4. The compound further gave an IC50 against Cholinesterase [5] of 4.93 µM. `CCOC(=O)C1=C(C)N(CC)/C(=N\N=C(/C)c2cc3ccccc3oc2=O)C1`: the inhibition in vivo at 10 µmol/kg in the assay with Rattus norvegicus [1] amounted to 94.5%. The compound further had an IC50 in [2] of 56 to 167 µM. As to `C/C(=N\N=C1\CC(C)C(=O)N1C)c1cc2ccccc2oc1=O` (configuration not stated), the inhibition in vivo at 10 µmol/kg in the assay on Rattus norvegicus [1] turned out to be 92.2%. For the same compound, the IC50 in assay [2] was in the range of 56 to 167 µM. Moreover, the Ratio IC50 in the assay filed under Homo sapiens stood at 223. As for `O=C(Cn1c(Cc2ccc(Br)cc2)nc2ccccc2c1=O)NNC(=O)c1cc2ccccc2oc1=O`, the Ratio IC50 in the assay on Saccharomyces cerevisiae lay within 4 to 5. `Cc1ccc(-n2c(-c3cc4ccccc4oc3=O)cs/c2=N/NC(=O)c2cc3ccccc3oc2=O)c(C)c1`: the IC50 in [6] is 1.38 µM. `O=c1oc2cc(Cl)ccc2cc1-c1nc2ccccc2[nH]1`: the inhibition in vivo at 20 mg/kg in the assay on Rattus norvegicus [7] is 47%.

As to `CC1=CC/C(=N/N=C(\C)c2cc3ccccc3oc2=O)N1C`, in the assay on Rattus norvegicus [1], the inhibition in vivo at 10 µmol/kg was determined as 90%. For the same compound, in assay [2], the IC50 was 56 to 167 µM. `C/C(=N\Nc1nc(-c2cc3ccccc3oc2=O)cs1)c1ccc(Cl)cc1N`: the Ratio IC50 in assay [8] was 125. Still for that read-out and setting: the result for `CCCCNCn1nc(-c2cc3ccccc3oc2=O)oc1=S` reads 17. For the compound `O=c1oc2ccccc2cc1-c1nn(CNc2ccccc2Cl)c(=S)o1`, it took 0.31 µM to reach half-maximal inhibition in [9] (IC50).

As to `O=C(Cc1cc(=O)oc2cc(O)ccc12)NCCCCCCCNC(=O)c1cccc2c(=O)c3ccccc3[nH]c12`, the Ratio IC50 on Acetylcholinesterase [10] was determined as 3. The IC50 against Cholinesterase [11] was found to be 32.5 µM; at Acetylcholinesterase [12], 5.85 µM. In the case of `O=c1oc2ccccc2c(O)c1/C=C/n1cnc2c(N3CCCCC3)ncnc21`, on Lipoxygenase, the IC50 stood at 6.25 µM. Moreover, in assay [13], the Ratio IC50 stood at 4.

For the compound `O=c1oc2ccccc2cc1-c1nn(CN2CCOCC2)c(=S)o1`, the IC50 in assay [9] was found to be 0.34 µM. Regarding `CCN1C(C)=CC/C1=N/N=C(\C)c1cc2ccccc2oc1=O`, the inhibition in vivo at 10 µmol/kg in the assay on Rattus norvegicus [1] worked out at 88.9%. This compound yielded a half-maximal inhibitory concentration (IC50) in [2] of 56 to 167 µM.

In [9], `C/C(=N\Nc1nc(-c2cc3ccccc3oc2=O)cs1)c1ccc(Br)cc1` had an IC50 of 0.11 µM. Further, the Ratio IC50 is 3 in assay [14] and 9.17 in the assay filed under Bos taurus.
